Test systems include T-47D breast; HS 578T breast; HCT-116 colon; COLO 205 colon; IGROV1 ovarian; MOLT-4 leukemia; OVCAR-5 ovarian; SW-620 colon; HCT-15 colon; 786-0 renal; MDA-MB-435; SK-OV-3 ovarian; NCI-H460 lung; ACHN renal; SF-268 CNS; UO-31 renal; SK-MEL-28 melanoma; BT-549 breast.
Holding throughout (test): inhibition of tumour cell growth, NCI panel, 48 h

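All cell lines were grown in 96-well plates and treated with compound for 48 hours. TGI: total growth inhibition.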

On to `O=C1c2c(ccc3c2CCC3)CC12Cc1ccccc1C2`, for which the TGI was greater than 100 µM in the assay with T-47D breast; greater than 100 µM in the assay with HS 578T breast; 19.6 µM in the assay with HCT-116 colon; 53.1 µM with COLO 205 colon; greater than 100 µM in the assay with IGROV1 ovarian; 30.1 µM with MOLT-4 leukemia. In addition, the TGI in the assay on OVCAR-5 ovarian is greater than 100 µM; in the assay on SW-620 colon, 93.7 µM; with HCT-15 colon it was greater than 100 µM; with 786-0 renal, 91.5 µM; in the assay on MDA-MB-435, greater than 100 µM; in the assay on SK-OV-3 ovarian, greater than 100 µM. In addition, the TGI in the assay with NCI-H460 lung is 96.1 µM; in the assay on ACHN renal, greater than 100 µM; in the assay on SF-268 CNS, greater than 100 µM; in the assay with UO-31 renal, 59.7 µM; in the assay with SK-MEL-28 melanoma, 80.4 µM.

For `CCNC12CCC(C1)C(C)(C)C2=O` (stereo not drawn), the TGI with T-47D breast, in the assay with BT-549 breast, in the assay on HCT-116 colon, with COLO 205 colon, in the assay on IGROV1 ovarian and with MOLT-4 leukemia was greater than 100 µM each time. Moreover, the TGI in the assay with OVCAR-5 ovarian, in the assay with SW-620 colon, in the assay with HCT-15 colon, with 786-0 renal, in the assay with MDA-MB-435 and in the assay with SK-OV-3 ovarian was greater than 100 µM throughout. Also, the TGI with NCI-H460 lung, with ACHN renal, in the assay with UO-31 renal and in the assay on SK-MEL-28 melanoma was greater than 100 µM each time.

Regarding `CN(C)c1nncc2n[nH]nc12`, the TGI in the assay with T-47D breast, in the assay with BT-549 breast, in the assay with HCT-116 colon, with COLO 205 colon, with IGROV1 ovarian and with MOLT-4 leukemia was greater than 100 µM each time. Besides, the TGI in the assay with OVCAR-5 ovarian, in the assay on SW-620 colon, in the assay with HCT-15 colon, in the assay with 786-0 renal, with MDA-MB-435 and with SK-OV-3 ovarian was greater than 100 µM each time. Further, the TGI in the assay with ACHN renal, with UO-31 renal and in the assay with SK-MEL-28 melanoma was greater than 100 µM in each case.

For `COC1(OC)C=CC2C1C1C=CC2C1(OC)OC` (stereo not drawn), the TGI with T-47D breast, in the assay on HS 578T breast, with HCT-116 colon, with COLO 205 colon, in the assay with IGROV1 ovarian and with MOLT-4 leukemia was greater than 100 µM each time. Further, the TGI with OVCAR-5 ovarian, in the assay on SW-620 colon, in the assay with HCT-15 colon, in the assay on 786-0 renal, in the assay with MDA-MB-435 and in the assay with SK-OV-3 ovarian was greater than 100 µM each time. Further, the TGI in the assay on NCI-H460 lung, in the assay with ACHN renal, in the assay on SF-268 CNS, with UO-31 renal and in the assay on SK-MEL-28 melanoma was greater than 100 µM throughout.

For `O/N=C1/CC2(N3CCOCC3)C3CC/C(=N\O)C2CC1(Cc1ccccc1)C3` (stereo not drawn), the TGI with T-47D breast, in the assay on HCT-116 colon, with COLO 205 colon, with IGROV1 ovarian, with MOLT-4 leukemia and in the assay on OVCAR-5 ovarian was greater than 100 µM throughout. Moreover, the TGI in the assay on SW-620 colon, with HCT-15 colon, in the assay with 786-0 renal, in the assay on MDA-MB-435, in the assay on SK-OV-3 ovarian and in the assay with NCI-H460 lung was greater than 100 µM in each case. The TGI in the assay on ACHN renal, in the assay with SF-268 CNS, in the assay on UO-31 renal and in the assay on SK-MEL-28 melanoma was greater than 100 µM each time.

As to `CCOC(OCC)N1C(=O)C2(C(OCC)OCC)CC3C(OC(=O)N3N)c3cccc1c32` (stereo not drawn), the TGI with T-47D breast, in the assay on BT-549 breast, in the assay with HCT-116 colon, in the assay with COLO 205 colon, in the assay on IGROV1 ovarian and in the assay with MOLT-4 leukemia was greater than 100 µM throughout. Also, the TGI in the assay with OVCAR-5 ovarian, with SW-620 colon, in the assay on HCT-15 colon, in the assay with 786-0 renal, in the assay on MDA-MB-435 and with SK-OV-3 ovarian was greater than 100 µM throughout. For the same compound, the TGI in the assay with NCI-H460 lung, in the assay on ACHN renal, in the assay with SF-268 CNS, in the assay on UO-31 renal and in the assay on SK-MEL-28 melanoma was greater than 100 µM throughout.

As for `O=C1/C(=C/c2ccc(Oc3ccccc3)cc2)N=C(c2ccccc2)N1c1ccc(S(=O)(=O)Nc2nccs2)cc1`, the TGI is 77.1 µM in the assay on T-47D breast; greater than 100 µM with HS 578T breast; 35.4 µM in the assay on HCT-116 colon; 22.2 µM with COLO 205 colon; 71.2 µM in the assay with MOLT-4 leukemia; greater than 100 µM with OVCAR-5 ovarian. For the same compound, the TGI is greater than 100 µM in the assay with SW-620 colon; 70.1 µM with HCT-15 colon; greater than 100 µM with 786-0 renal; 6.86 µM with MDA-MB-435; greater than 100 µM with SK-OV-3 ovarian; greater than 100 µM in the assay with NCI-H460 lung. For the same compound, the TGI in the assay on ACHN renal was greater than 100 µM; in the assay with SF-268 CNS, greater than 100 µM; in the assay on UO-31 renal it was 78.2 µM; in the assay with SK-MEL-28 melanoma it was greater than 100 µM.

As for `O=C(O)[C@H](Cc1ccccc1)NCCN1CCC[C@H]1C(=O)O`, the TGI in the assay with T-47D breast, in the assay on HCT-116 colon, in the assay with COLO 205 colon, in the assay with MOLT-4 leukemia, with OVCAR-5 ovarian and in the assay with SW-620 colon was greater than 100 µM in each case. The TGI in the assay on HCT-15 colon, in the assay with 786-0 renal, with MDA-MB-435, in the assay with SK-OV-3 ovarian, with NCI-H460 lung and in the assay on SF-268 CNS was greater than 100 µM throughout. The TGI with UO-31 renal and in the assay on SK-MEL-28 melanoma was greater than 100 µM each time.

In the case of `N=CN=CC(=S)O[C@@H]1C(=O)N2CCC[C@@]23CCCC[C@@H]13`, the TGI in the assay with T-47D breast, in the assay with HS 578T breast, with HCT-116 colon, in the assay with COLO 205 colon, in the assay on IGROV1 ovarian and with OVCAR-5 ovarian was greater than 12.5 µM each time. Further, the TGI in the assay with HCT-15 colon, with 786-0 renal, in the assay on MDA-MB-435, in the assay with SK-OV-3 ovarian, with NCI-H460 lung and in the assay with ACHN renal was greater than 12.5 µM each time. Further, the TGI with SF-268 CNS, with UO-31 renal and with SK-MEL-28 melanoma was greater than 12.5 µM each time.

For the origin of these results see PubChem BioAssay (NCI).
